Measured values from patent publication US10696615B2, “Prenylated hydroxystilbenes” (The University of Sydney, priority 2011, dated 2020).

Legend:
Type in all cases: cell-based, human
[1] = system: SK-MEL-28; test: NCI in vitro cancer screen, Melanoma; conditions: SK-MEL-28; for GI50 / LC50: Homo sapiens
[2] = system: RPMI-8226; test: NCI in vitro cancer screen, Leukemia; conditions: RPMI-8226; for GI50 / CC50: Homo sapiens; for CC50: read-out: LC50 (the source's name)
[3] = system: T-47D; test: NCI in vitro cancer screen, Breast Cancer; conditions: for GI50 / CC50: Homo sapiens, T47D; for CC50: read-out: LC50 (the source's name)
[4] = system: SR; test: NCI in vitro cancer screen, Leukemia; conditions: for GI50 / CC50: Homo sapiens; for CC50: read-out: LC50 (the source's name)
[5] = system: PC-3; test: NCI in vitro cancer screen, Prostate Cancer; conditions: PC-3; for GI50 / CC50: Homo sapiens; for CC50: read-out: LC50 (the source's name)
[6] = system: SK-OV-3; test: NCI in vitro cancer screen, Ovarian Cancer; conditions: SK-OV-3; for GI50 / CC50: Homo sapiens; for CC50: read-out: LC50 (the source's name)
[7] = system: SN12C; test: NCI in vitro cancer screen, Renal Cancer; conditions: for GI50 / CC50: Homo sapiens; for CC50: read-out: LC50 (the source's name)
[8] = system: UACC-62; test: NCI in vitro cancer screen, Melanoma; conditions: UACC-62; for GI50 / CC50: Homo sapiens; for CC50: read-out: LC50 (the source's name)
[9] = system: SK-MEL-5; test: NCI in vitro cancer screen, Melanoma; conditions: SK-MEL-5; for GI50 / CC50: Homo sapiens; for CC50: read-out: LC50 (the source's name)
[10] = system: MDA-MB-435; test: NCI in vitro cancer screen, Melanoma; conditions: MDA-MB-435; for GI50 / CC50: Homo sapiens; for CC50: read-out: LC50 (the source's name)
[11] = system: NCI-H460; test: NCI in vitro cancer screen, Non-Small Cell Lung Cancer; conditions: NCI-H460; for GI50 / CC50: Homo sapiens; for CC50: read-out: LC50 (the source's name)
[12] = system: HS 578T; test: NCI in vitro cancer screen, Breast Cancer; conditions: for GI50 / CC50: Homo sapiens; for CC50: read-out: LC50 (the source's name)
[13] = system: HOP-62; test: NCI in vitro cancer screen, Non-Small Cell Lung Cancer; conditions: HOP-62; for GI50 / CC50: Homo sapiens; for CC50: read-out: LC50 (the source's name)
[14] = system: SK-MEL-2; test: NCI in vitro cancer screen, Melanoma; conditions: SK-MEL-2; for GI50 / LC50: Homo sapiens
[15] = system: OVCAR-8; test: NCI in vitro cancer screen, Ovarian Cancer; conditions: OVCAR-8; for GI50 / CC50: Homo sapiens; for CC50: read-out: LC50 (the source's name)
[16] = system: NCI-H23; test: NCI in vitro cancer screen, Non-Small Cell Lung Cancer; conditions: NCI-H23; for GI50 / LC50: Homo sapiens
[17] = system: TK-10; test: NCI in vitro cancer screen, Renal Cancer; conditions: TK-10; for GI50 / LC50: Homo sapiens
[18] = system: MDA-MB-468; test: NCI in vitro cancer screen, Breast Cancer; conditions: MDA-MB-468; for GI50 / CC50: Homo sapiens; for CC50: read-out: LC50 (the source's name)
[19] = system: HCT-15; test: NCI in vitro cancer screen, Colon Cancer; conditions: HCT-15; for GI50 / CC50: Homo sapiens; for CC50: read-out: LC50 (the source's name)
[20] = system: 786-0; test: NCI in vitro cancer screen, Renal Cancer; conditions: 786-0; for GI50 / LC50 (50% net cell kill): Homo sapiens
[21] = system: LOX IMVI; test: NCI in vitro cancer screen, Melanoma; conditions: for GI50 / CC50: Homo sapiens; for CC50: read-out: LC50 (the source's name)
[22] = system: M14; test: NCI in vitro cancer screen, Melanoma; conditions: M14; for GI50 / CC50: Homo sapiens; for CC50: read-out: LC50 (the source's name)
[23] = system: SF-268; test: NCI in vitro cancer screen, CNS Cancer; conditions: SF-268; for GI50 / CC50: Homo sapiens; for CC50: read-out: LC50 (the source's name)
[24] = system: HCC-2998; test: NCI in vitro cancer screen, Colon Cancer; conditions: HCC-2998; for GI50 / CC50: Homo sapiens; for CC50: read-out: LC50 (the source's name)
[25] = system: CCRF-CEM; test: NCI in vitro cancer screen, Leukemia; conditions: for GI50 / CC50: Homo sapiens; for CC50: read-out: LC50 (the source's name)
[26] = system: EKVX; test: NCI in vitro cancer screen, Non-Small Cell Lung Cancer; conditions: for GI50 / CC50: Homo sapiens; for CC50: read-out: LC50 (the source's name)
[27] = system: RXF-393; test: NCI in vitro cancer screen, Renal Cancer; conditions: RXF-393; for GI50 / CC50: Homo sapiens; for CC50: read-out: LC50 (the source's name)
[28] = system: A498; test: NCI in vitro cancer screen, Renal Cancer; conditions: A498; for GI50 / CC50: Homo sapiens; for CC50: read-out: LC50 (the source's name)

COc1cc(/C=C/c2cc(O)cc(OC)c2CC=C(C)C)ccc1O [USYDS1, (E)-2-(3-methyl-2-buten-1-yl)-4′,5-dihydroxy-3,3′-dimethoxystilbene]
GI50 [1]: 10.9 µM | LC50 [1]: 51.7 µM | TGI [1]: 23.8 µM | GI50 [2]: 0.11 µM | CC50 [2]: > 100 µM | TGI [2]: 14.8 µM | TGI [3]: 19.8 µM | GI50 [3]: 0.72 µM | CC50 [3]: 67.4 µM | TGI [4]: 24.4 µM | GI50 [4]: 0.04 µM | CC50 [4]: > 100 µM | GI50 [5]: 0.42 µM | CC50 [5]: 47.9 µM | TGI [5]: 16.1 µM | GI50 [6]: 0.19 µM | CC50 [6]: 34.7 µM | TGI [6]: 11.6 µM | TGI [7]: 16.9 µM | GI50 [7]: 0.99 µM | CC50 [7]: 54.2 µM | GI50 [8]: 1.62 µM | CC50 [8]: 46.6 µM | TGI [8]: 18.3 µM | GI50 [9]: 0.05 µM | CC50 [9]: 5.99 µM | TGI [9]: 0.75 µM | GI50 [10]: 0.03 µM | CC50 [10]: 43 µM | TGI [10]: 13.8 µM | GI50 [11]: 0.23 µM | CC50 [11]: 42 µM | TGI [11]: 1.38 µM | GI50 [12]: 0.02 µM | CC50 [12]: > 100 µM | TGI [13]: 16.0 µM | GI50 [13]: 0.44 µM | CC50 [13]: 42.2 µM | GI50 [14]: 0.32 µM | LC50 [14]: 38 µM | TGI [14]: 10.6 µM | GI50 [15]: 0.08 µM | CC50 [15]: 50 µM | TGI [15]: 11.7 µM | GI50 [16]: 0.28 µM | LC50 [16]: 62.5 µM | TGI [16]: 15.1 µM | GI50 [17]: 4.1 µM | LC50 [17]: 40.5 µM | TGI [17]: 15.7 µM | GI50 [18]: 0.36 µM | CC50 [18]: 33.2 µM | TGI [18]: 8.37 µM | TGI [19]: 16.1 µM | GI50 [19]: 0.05 µM | CC50 [19]: > 100 µM | TGI [20]: 14.0 µM | GI50 [20]: 0.48 µM | LC50 (50% net cell kill) [20]: > 100 µM | TGI [21]: 16.2 µM | GI50 [21]: 0.05 µM | CC50 [21]: 58.8 µM | GI50 [22]: 0.04 µM | CC50 [22]: 44 µM | TGI [22]: 13.9 µM | GI50 [23]: 0.25 µM | CC50 [23]: 50.2 µM | TGI [23]: 14.1 µM | TGI [24]: 11.5 µM | GI50 [24]: 1.07 µM | CC50 [24]: 35.8 µM | TGI [25]: 24.6 µM | GI50 [25]: 0.35 µM | CC50 [25]: > 100 µM | TGI [26]: 24.3 µM | GI50 [26]: 10.8 µM | CC50 [26]: 54.4 µM | GI50 [27]: 0.03 µM | CC50 [27]: 39.1 µM | TGI [28]: 8.45 µM | GI50 [28]: 1.84 µM | CC50 [28]: 32.2 µM

COc1cc(/C=C/c2cc(O)cc(OCC=C(C)C)c2)ccc1O [USYDS2, (E)-3-(3-methyl-2-butenyloxy)-4′,5-dihydroxy-3′-methoxystilbene]
GI50 [1]: 5.04 µM | LC50 [1]: 46.7 µM | TGI [1]: 19.4 µM | GI50 [2]: 4.32 µM | CC50 [2]: > 100 µM | TGI [2]: 52.8 µM | TGI [3]: 33.6 µM | GI50 [3]: 5.66 µM | CC50 [3]: > 100 µM | TGI [4]: >100 µM | GI50 [4]: 0.54 µM | CC50 [4]: > 100 µM | GI50 [5]: 3.84 µM | CC50 [5]: 65.8 µM | TGI [5]: 18.7 µM | GI50 [6]: 3.69 µM | CC50 [6]: 38.9 µM | TGI [6]: 14.9 µM | TGI [7]: 18.8 µM | GI50 [7]: 4.02 µM | CC50 [7]: 60.2 µM | GI50 [8]: 3.73 µM | CC50 [8]: 44.6 µM | TGI [8]: 15.9 µM | GI50 [9]: 1.58 µM | CC50 [9]: 34.3 µM | TGI [9]: 11.5 µM | GI50 [10]: 0.34 µM | CC50 [10]: 41.3 µM | TGI [10]: 11.0 µM | GI50 [11]: 2.47 µM | CC50 [11]: 58.7 µM | TGI [11]: 10.9 µM | TGI [12]: 10.3 µM | GI50 [12]: 1.28 µM | CC50 [12]: > 100 µM | TGI [13]: 18.5 µM | GI50 [13]: 4.44 µM | CC50 [13]: 43.4 µM | GI50 [14]: 1.25 µM | LC50 [14]: 41.6 µM | TGI [14]: 9.59 µM | GI50 [15]: 2.8 µM | CC50 [15]: 44.6 µM | TGI [15]: 14.8 µM | GI50 [16]: 2.89 µM | LC50 [16]: > 100 µM | TGI [16]: 23.6 µM | GI50 [17]: 4.69 µM | LC50 [17]: 40.1 µM | TGI [17]: 14.3 µM | GI50 [18]: 2.72 µM | CC50 [18]: 36.8 µM | TGI [18]: 9.41 µM | TGI [19]: 17.8 µM | GI50 [19]: 0.76 µM | CC50 [19]: 97.3 µM | TGI [20]: 15.9 µM | GI50 [20]: 3.55 µM | LC50 (50% net cell kill) [20]: 98.8 µM | TGI [21]: 19.4 µM | GI50 [21]: 1.56 µM | CC50 [21]: > 100 µM | GI50 [22]: 0.53 µM | CC50 [22]: 49.4 µM | TGI [22]: 15.4 µM | GI50 [23]: 4.5 µM | CC50 [23]: 51.6 µM | TGI [23]: 19.2 µM | TGI [24]: 17.3 µM | GI50 [24]: 4.61 µM | CC50 [24]: 46.4 µM | TGI [25]: >100 µM | GI50 [25]: 5.06 µM | CC50 [25]: > 100 µM | TGI [26]: 25.2 µM | GI50 [26]: 9.04 µM | CC50 [26]: 66.4 µM | GI50 [27]: 1.35 µM | CC50 [27]: 23.6 µM | TGI [27]: 5.46 µM | TGI [28]: 23.8 µM | GI50 [28]: 10.3 µM | CC50 [28]: 55.2 µM
